Key:
[1] = test system: MLL leukemia cell lines (RS411-MLL-AF4; HB-MLL-ENL) and control cells (REH-TEL-AML); assay: Cell-based high-throughput phenotypic screen, cell viability by fluorescent indicator dye; set-up: species or system human; details: 2 days after addition of compounds
Experimental: Cell viability was assessed using a fluorescent indicator dye at 2 days after addition of compounds.

[2] = test system: normal murine bone marrow progenitors; assay: Therapeutic window: human B-ALL cell lines versus normal bone marrow progenitors; format: cell-based, human and murine
[3] = test system: MV411-lucifease cell line; assay: In vitro sensitivity of MV411-luciferase cell line; format: cell-based, human
[4] = Preliminary toxicity studies, daily injection over 10 days; format: in vivo
Experimental: Preliminary toxicity studies were performed. Mice were injected (vehicle alone, 8 mg/kg, or 16 mg/kg) daily over a 10 day-period with a 2-day holiday after the first 4 days.

[5] = test system: human leukemia cell lines with MLL translocations; assay: Viability of human leukemia (B-ALL) cell lines, cell titer blue assay; format: cell-based; details: 72 h, viability 3 days post-treatment, read-out: IC50 (half maximal inhibitory concentration)
Experimental: (§1) FIG. 3. Inhibition of human B-ALL cell lines treated with compound. Cell lines were treated with increasing concentrations of compound and assessed for viability 3 days post-treatment by cell titer blue assay.
(§2) The majority of human leukemia cell lines with MLL translocations (3/4) were inhibited more potently than non-MLL cell lines (FIG. 3); although most non-MLL cells lines (4/6) were still sensitive to the compounds. […] Compound 1 also has inhibitory effects on primary human patient ALL samples with an IC50 of 4-20 nM.

[6] = test system: cells lines with other translocations (E2A-PBX, E2A-HLF, TEL-PDGFRB); assay: as above; format: cell-based; details: read-out: IC50 (half maximal inhibitory concentration)
Experimental: as §1, §2

[7] = test system: AML cell lines induced by MLL-AF10 or MLL-AF9; assay: Effects on murine leukemia cell lines established from AMLs induced by MLL fusion oncogenes; format: cell-based
Experimental: Compound 1 was also tested for its effects on murine leukemia cell lines established from AMLs induced via retroviral transduction of MLL fusion oncogenes (Somervaille, T. C. & Cleary, M. L. Identification and characterization of leukemia stem cells in murine MLL-AF9 acute myeloid leukemia. Cancer Cell 10, 257-268, (2006)).

[8] = Initial pharmacokinetic studies in mice; format: in vivo
Experimental: Initial pharmacokinetic studies were conducted in mice to inform design of pre-clinical efficacy studies.

[9] = test system: primary human patient ALL samples; assay: Inhibition of primary human patient ALL samples; format: cell-based
Experimental: as §2

[10] = test system: human and mouse leukemia cell lines; assay: Apoptosis (annexin V and propidium iodide staining) after a single treatment; format: cell-based
From the text: Compound 1 induced death of human and mouse leukemia cell lines by apoptosis (annexin V and propidium iodide staining) within 3 days of a single treatment, indicating a cytotoxic as opposed to cytostatic effect.

[11] = Additional toxicity study, subcutaneous twice a day for 10 days; format: in vivo; details: mice
Experimental: An additional toxicity study was performed by injecting mice subcutaneously twice a day with 20 mg/kg compound formulated in 5% DMSO/20% gamma-cyclodextrin or 22.5 mg/kg compound formulated in 10% DMSO/40% captisol. for 10 consecutive days. Animals were also dosed with gamma-cyclodextrin or captisol vehicle alone.

[12] = Solubility / formulation property; format: physicochemical
[13] = test system: human cancer cell lines derived from 9 different tissues; assay: NCI 60-cell line screen, growth inhibition (sulforhodamine B); format: cell-based; details: colon and prostate cancer cell lines; 48 hours incubation
Experimental: FIG. 1. Mean graph representing the sensitivity of 60 human cell lines to compound 1. The vertical line at GI50 (the drug concentration resulting in a 50% growth reduction) represents the mean response to 10 μM compound 1.
FIG. 2. Growth response of human cell lines grown for 2 days in the presence of increasing concentrations of compound 1.
The compounds have broad specificity and affect human cell lines of multiple lineages. The growth inhibitory properties were analyzed in human cancer cell lines derived from 9 different tissues in the NCI 60-cell line screen. To perform this assay, cells were plated in 96-well plates and incubated overnight. After 24 hours, compounds were added to the wells and plates. Two plates of each cell line were set aside and fixed in TCA to measure the quantity of cells present at the time drug was added (time 0). The remaining plates were incubated for 48 hours. The assay was terminated by addition of TCA, and the cells were quantified by staining the cellular proteins with sulforhadamine B. The growth inhibition (GI50) was calculated by dividing the difference between treated cells at the beginning and end of the assay by the difference between untreated cells at the beginning and end of the assay.

SMILES: CC(=O)[C@]1(O)Cc2c(O)c3c(c(O)c2[C@@H](O[C@H]2C[C@H](N)[C@H](O)[C@H](C)O2)C1)C(=O)c1ccccc1C3=O [idarubicin, reference compound]
- cell viability in high-throughput screen [1]: reduced viability of all cell lines
- sensitivity of human B-ALL cells versus normal murine bone marrow progenitor cells [2]: overlapping potency

SMILES: Cc1ccc(S(=O)(=O)Cc2nc(-c3ccc(C(=O)NCc4cccnc4)cc3)oc2C)cc1 [Compound 1]
- IC50 ([3]; Homo sapiens, MV411-luciferase cell line): 10 nM
- IC100 ([3]; MV411-luciferase cell line, printed with (±20 nM)): 25 nM
- effect of pre-incubation with FBS on potency ([3]; pre-incubation of compound with FBS prior to cell treatment in vitro): no effect on potency
- tolerability (distress, body weight reduction) ([4]; mice, 8 or 16 mg/kg daily over 10 days with 2-day holiday): All but one animal tolerated dosing
- nephrotoxicity ([4]; mice, captisol formulation, also seen in animals treated with vehicle only): Mild nephrotoxicity
- cardiotoxicity ([4]; mice, high-dose group (16 mg/kg)): Severe cardiotoxicity in one animal and mild cardiotoxicity in another animal
- MTD or lethal dose ([4]; mouse, in vivo): not achieved
- IC50 [5]: 1 to 10 nM
- IC50 [6]: 10 to 20 nM
- sensitivity of murine AML cell lines [7]: highly sensitive
- compound remaining in plasma ([8]; at 24 hours): almost no compound remained
- half-life ([8]; mouse, plasma, 16 mg/kg i.p. or s.c. (10% DMSO/40% captisol), 25 mg/kg i.p., s.c., oral (5% DMSO/20% gamma-cyclodextrin)): ~1.5 h
- absorption into plasma ([8]; single intra-peritoneal or subcutaneous injection 16 mg/kg): quickly absorbed in plasma
- IC50 [9]: 4 to 20 nM
- kinetics of cell death: completion ([10]; after treatment): 48 h
- kinetics of cell death: initiation ([10]; after treatment): 24 h
- time to death by apoptosis ([10]; single treatment, annexin V and propidium iodide staining): ≤ 3 days
- nephrotoxicity ([11]; gamma-cyclodextrin formulation, 20 mg/kg s.c. twice a day): No nephrotoxicity was observed
- toxic side effects (histological tissue morphology, serological liver and kidney function tests) ([11]; s.c. twice a day, 20 mg/kg (5% DMSO/20% gamma-cyclodextrin) or 22.5 mg/kg (10% DMSO/40% captisol)): No toxic side effects were observed
- sensitivity of human B-ALL cells versus normal murine bone marrow progenitor cells [2]: differential sensitivity
- solubility [12]: sparingly soluble
- growth inhibitory activity (GI50) in NCI 60-cell line screen [13]: particularly high activity

Reference: patent publication US9150559B2, “Anti-proliferative compounds and methods for using the same” (The Board of Trustees of the Leland Stanford Junior …, priority 2011, dated 2015)
